Test results from patent US20150206621A1, “Electrical Insulator Comprising An Organofluorine Compound And Method For Producing It” (priority 2012, published 2015).

Assay: toxicity / lethal concentration LC50
Format: in vivo

FC(F)(F)COC(F)(F)F [2,2,2-trifluoroethyl-trifluoromethyl ether]
risk for human toxicity (in words) (concluded from available results of mammalian HFC (hydrofluorocarbon) tests): low risk for human toxicity

O=C(C(F)(F)F)C(F)(C(F)(F)F)C(F)(F)F [C5-ketone, 1,1,1,3,4,4,4-heptafluoro-3-(trifluoromethyl)butan-2-one]
toxicity (in words) (in vivo): practically non-toxic

O=C(C(F)(F)C(F)(F)F)C(F)(C(F)(F)F)C(F)(F)F [C6-ketone, 1,1,1,2,4,4,5,5,5-Nonafluoro-2-(trifluoromethyl)pentan-3-one]
LC50 (in vivo): about 100'000 ppm
toxicity (in words) (in vivo): non-toxic
